Results published in BindingDB's records for doi:10.7270/Q2X065P9 (Methylgene, 2012).
Several values for one entry are separate records, joined by “and”; a condition that tells them apart may be missing. Identical values can stand only once.

Assays:
[1] = molecular target: Hepatocyte growth factor receptor (Homo sapiens, UniProt P08581); assay: Inhibition Assay
From the text: (§1) Inhibition assay using kinase inhibitors.

[2] = molecular target: High affinity nerve growth factor receptor (Homo sapiens, UniProt P04629); assay: Inhibition Assay
Sequence of High affinity nerve growth factor receptor (P04629 whole entry): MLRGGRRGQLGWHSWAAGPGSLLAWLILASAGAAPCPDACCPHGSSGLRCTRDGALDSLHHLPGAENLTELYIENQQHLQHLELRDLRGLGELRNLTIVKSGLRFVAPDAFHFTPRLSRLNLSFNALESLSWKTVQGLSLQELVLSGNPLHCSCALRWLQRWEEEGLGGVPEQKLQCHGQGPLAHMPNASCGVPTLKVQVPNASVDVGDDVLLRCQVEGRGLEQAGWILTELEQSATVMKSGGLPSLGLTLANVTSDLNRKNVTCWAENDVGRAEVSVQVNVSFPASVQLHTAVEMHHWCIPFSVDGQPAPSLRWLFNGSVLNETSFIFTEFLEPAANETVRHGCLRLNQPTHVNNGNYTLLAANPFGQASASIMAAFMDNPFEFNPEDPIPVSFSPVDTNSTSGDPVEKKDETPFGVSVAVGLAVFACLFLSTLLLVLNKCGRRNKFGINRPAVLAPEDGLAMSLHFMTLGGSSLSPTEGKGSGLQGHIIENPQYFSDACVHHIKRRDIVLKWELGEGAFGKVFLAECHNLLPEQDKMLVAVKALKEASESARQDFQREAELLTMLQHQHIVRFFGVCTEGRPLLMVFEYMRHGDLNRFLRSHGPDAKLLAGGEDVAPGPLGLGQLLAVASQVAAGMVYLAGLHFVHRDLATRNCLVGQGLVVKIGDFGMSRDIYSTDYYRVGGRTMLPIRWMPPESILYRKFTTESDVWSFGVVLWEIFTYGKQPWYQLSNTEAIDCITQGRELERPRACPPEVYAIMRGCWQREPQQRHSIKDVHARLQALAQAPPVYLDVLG
From the text: as §1

Sequence of Hepatocyte growth factor receptor (P08581 whole entry): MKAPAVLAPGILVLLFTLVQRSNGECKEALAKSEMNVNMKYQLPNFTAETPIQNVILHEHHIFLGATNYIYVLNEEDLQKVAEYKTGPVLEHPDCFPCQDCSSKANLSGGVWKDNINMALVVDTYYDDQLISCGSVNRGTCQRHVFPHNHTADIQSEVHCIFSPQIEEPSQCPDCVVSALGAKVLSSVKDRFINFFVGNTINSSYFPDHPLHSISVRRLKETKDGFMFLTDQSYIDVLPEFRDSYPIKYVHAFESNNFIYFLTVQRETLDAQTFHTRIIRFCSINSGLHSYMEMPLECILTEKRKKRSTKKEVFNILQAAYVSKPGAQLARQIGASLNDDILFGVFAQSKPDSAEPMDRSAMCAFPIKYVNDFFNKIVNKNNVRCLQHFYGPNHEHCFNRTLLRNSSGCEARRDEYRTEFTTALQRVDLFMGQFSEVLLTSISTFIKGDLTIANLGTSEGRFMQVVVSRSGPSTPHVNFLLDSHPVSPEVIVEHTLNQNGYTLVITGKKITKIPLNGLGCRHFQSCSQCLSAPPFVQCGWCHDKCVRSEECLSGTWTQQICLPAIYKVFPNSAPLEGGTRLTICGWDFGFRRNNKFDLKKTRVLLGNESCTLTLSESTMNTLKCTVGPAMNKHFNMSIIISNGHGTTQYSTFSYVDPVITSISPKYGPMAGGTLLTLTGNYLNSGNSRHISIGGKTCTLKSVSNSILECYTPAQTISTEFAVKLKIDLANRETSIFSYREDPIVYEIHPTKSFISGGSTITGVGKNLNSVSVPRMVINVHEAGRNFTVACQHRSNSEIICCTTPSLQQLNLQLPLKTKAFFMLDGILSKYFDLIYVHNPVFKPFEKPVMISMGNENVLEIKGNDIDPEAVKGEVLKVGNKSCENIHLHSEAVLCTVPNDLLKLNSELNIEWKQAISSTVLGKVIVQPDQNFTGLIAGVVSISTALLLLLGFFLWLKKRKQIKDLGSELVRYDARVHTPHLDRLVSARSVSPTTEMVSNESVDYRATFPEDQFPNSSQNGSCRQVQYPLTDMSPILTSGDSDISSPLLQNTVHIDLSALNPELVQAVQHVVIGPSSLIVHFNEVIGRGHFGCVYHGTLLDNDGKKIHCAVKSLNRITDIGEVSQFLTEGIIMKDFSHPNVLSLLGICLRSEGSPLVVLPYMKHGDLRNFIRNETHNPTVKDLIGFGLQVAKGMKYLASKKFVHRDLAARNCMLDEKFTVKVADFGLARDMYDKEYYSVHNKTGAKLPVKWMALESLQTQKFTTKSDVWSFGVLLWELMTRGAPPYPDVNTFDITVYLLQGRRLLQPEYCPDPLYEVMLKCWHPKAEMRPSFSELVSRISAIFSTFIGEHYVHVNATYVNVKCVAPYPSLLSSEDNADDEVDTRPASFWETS

Row | IC50 [1] | IC50 [2] [nM] | SMILES
1 | 10 nM |  | COc1cc2nccc(Oc3ccc(NC(=O)N4CCN(c5ccccc5)C4=O)cc3F)c2cc1OC
2 | 310 nM and 2500 nM |  | CC(=O)Nc1cc(Oc2ccc(NC(=O)N3CCN(c4ccccc4)C3=O)cc2F)ccn1 [Oxo-3-phenylimidazolidine-1-carboxamide, 5]
3 |  | 5 | CNC(=O)Nc1cc(Oc2ccc(NC(=O)N3CCN(c4ccccc4)C3=O)cc2)ccn1 [2-oxoimidazolidine-1-carboxamide, 15]
4 |  | 4 | CC(=O)Nc1cc(Oc2ccc(NC(=O)N3CCN(c4ccccc4)C3=O)cc2)ccn1 [2-oxoimidazolidine-1-carboxamide, 5]
5 |  | 20 | Nc1cc(Oc2ccc(NC(=O)N3CCN(c4ccccc4)C3=O)cc2)ccn1 [2-oxoimidazolidine-1-carboxamide, 13]
6 |  | 2 | CNC(=O)Nc1cc(Oc2ccc(NC(=O)N3CCN(c4ccc(F)cc4)C3=O)cc2)ccn1 [2-oxoimidazolidine-1-carboxamide, 16]
7 | 150 nM |  | O=C(Nc1cc(Oc2ccc(NC(=O)N3CCN(c4ccccc4)C3=O)cc2F)ncn1)N1CCCC1 [Oxo-3-phenylimidazolidine-1-carboxamide, 3]
8 |  | 4 | O=C(NCCN1CCCC1)Nc1cc(Oc2ccc(NC(=O)N3CCN(c4ccc(F)cc4)C3=O)cc2)ccn1 [2-oxoimidazolidine-1-carboxamide, 17]
9 |  | 3 | CC(=O)Nc1cc(Oc2ccc(NC(=O)N3CCN(c4ccc(F)cc4)C3=O)cc2)ccn1 [2-oxoimidazolidine-1-carboxamide, 14]
10 | 230 nM |  | O=C(Nc1cc(Oc2ccc(NC(=O)N3CCN(c4ccccc4)C3=O)cc2F)ccn1)N1CCCC1 [Oxo-3-phenylimidazolidine-1-carboxamide, 4]
11 | 10 nM |  | CCn1cnc(-c2cc3nccc(Oc4ccc(NC(=O)N5CCN(c6ccccc6)C5=O)cc4F)c3s2)c1
